Assay results: patent publication US11767316B2, “Non-fused thiophene derivatives and their uses” (ENYO PHARMA, priority 2018, dated 2023)

Assays:
[1] = target: T1, CISD3 Gene Product (Miner2) (Homo sapiens, UniProt P0C7P0); assay: Stability of Fe-S cluster binding of purified NEET protein (absorbance 458 nm), Miner2; format: biochemical
T1 sequence (P0C7P0 15-127): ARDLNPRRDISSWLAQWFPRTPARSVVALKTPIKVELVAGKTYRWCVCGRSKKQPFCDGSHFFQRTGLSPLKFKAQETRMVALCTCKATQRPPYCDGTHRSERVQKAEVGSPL
Method: (§1) The modulator effect on the NEET proteins encoded by human CISD1, CISD2, and CISD3 genes by the compounds of the invention has been tested and is reported below. Particularly, the biochemical function of the NEET proteins is measured by the stability of Fe—S cluster binding of the purified NEET proteins.
(§2) The Fe—S cluster binding capacity of NEET proteins is known to be coordinated by four amino-acids in a stretch of 16 (three Cysteine and one Histidine). As the lability of the Fe—S cluster of NEET proteins is sensitive to the environment, cluster stability measurements are one of the measures of interactions of NEET proteins with small molecules and compounds. NEET protein/2Fe-2S cluster stability can be assessed by monitoring the decay in absorbance of its characteristic 458-nm peak (characteristic of the oxidized 2Fe-2S cluster) over time. Each NEET protein (mitoNEET, NAF-1 and Miner 2) was tested for its Fe—S binding in the absence or presence of a compound according to the invention (see table 3 below). […]
(§3) At pH 6, all the three NEET proteins (mitoNEET, NAF-1 and Miner 2) have a characteristic rate of loss of the bound Fe—S cluster that can be measured by the decrease of absorbance at wavelength 458 nm over time, using a spectrophotometer. […]
(§4) A reaction mix containing DMSO diluted in the Bis-Tris Buffer with or without a compound of the invention was prepared. […] The absorbance at wavelength 458 nm was taken at 5 minutes intervals at 37° C. with a spectrofluorimeter. […]
(§5) In addition to time monitoring, residual bound Fe—S cluster to NEET protein was measured at the final point of the spectrometry assay for each Test sample and compared to the Control sample data (in parenthesis table 3). This residual binding is measured by the differential percentage between the absorbance 458 nm at time zero and the absorbance 458 nm at the end of the experiment (i.e. respectively 500 or 180 minutes as described hereabove), showing the percentage of NEET protein still able to bind a Fe—S cluster. […]

diabetic mice model = assay: HbA1c in diabetic mice model (db/db); format: in vivo; settings: PO 7 or 20 mg/kg BID or 40 mg/kg QD, 28 days of dosing, FIG. 1
Method: Compound #16 has been tested on a diabetic mice model. […] Therefore, this compound can be useful for treating diabetes.
Male db/db (BKS.Cg-m 1/1 Leprdb/J) mice aged 6 weeks at the time of arrival were obtained from Janvier (France) and acclimatized to their new environment. Animals were housed in groups of 2 in a light, temperature and humidity-controlled room (a 12-hour light/dark cycle, with lights off at 4 PM; 23+/−1° C.; 50% relative humidity). All animals had free access to standard Purina 5008 chow (LabDiet) and domestic-quality tap water.
The study was initiated in mice aged 8 weeks. Three days before first dosing, a blood sample was collected for determination of baseline blood glucose and hemoglobin A1c (HbA1c) levels. Based on these baseline HbA1c and fed blood glucose levels, mice were stratified into treatment groups (n=10) receiving vehicle (CMC (1.5% W/V) Sigma (ref.C9481), Tween 80 (0.25% V/V) Sigma (ref.59924) in water) or orally administered Compound #16 as follows: • 7 mg/kg, PO BID (twice a day) • 20 mg/kg, PO BID (twice a day) • 40 mg/kg PO QD (Once a day)
Throughout the experimental period, body weight and food and water intake were measured daily in the morning.
Animals were terminated after a total of 28 days of dosing. […]

[2] = target: T2, CISD1 Gene Product (mitoNEET) (Homo sapiens, UniProt Q9NZ45); assay: Stability of Fe-S cluster binding of purified NEET protein (absorbance 458 nm), mitoNEET; format: biochemical
T2 sequence (Q9NZ45 33-108 limits assumed): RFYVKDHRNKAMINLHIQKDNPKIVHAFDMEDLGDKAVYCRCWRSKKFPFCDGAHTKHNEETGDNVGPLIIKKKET
Method: as §1, §2, §3, §4, §5

O=C(Nc1scc(C2CCc3ccccc3C2)c1C(=O)O)c1ccccc1 (stereo not shown) [#16]
Residual cluster bound at end of experiment (Percentage Absorbance 458 nm at time zero) ([1]; CISD3 Gene Product, end of experiment 180 minutes, compound 60 μM, pH 6, vehicle control 11%): 11% (11%)
Time (in minutes) to achieve 50% loss of bound cluster (Absorbance 458 nm) ([1]; Miner2 20 μM, compound 60 μM, pH 6, 37° C., vehicle control 60): 35 (60) minutes
Stabiliser or destabiliser of NEET protein/Fe-S cluster binding ([1]; Miner2, destabiliser = time to 50% cluster loss decreased by more than 25% vs control): destabilisers
Change of glycated hemoglobin, HbA1C (diabetic mice model): capable of reducing glycated hemoglobin
Time (in minutes) to achieve 50% loss of bound cluster (Absorbance 458 nm) ([2]; mitoNEET 20 μM, compound 60 μM, pH 6, 37° C., vehicle control 80): 35 (80) minutes
Residual cluster bound at end of experiment (Percentage Absorbance 458 nm at time zero) ([2]; mitoNEET, end of experiment 180 minutes, compound 60 μM, pH 6, vehicle control 16%): 0% (16%)
Stabiliser or destabiliser of NEET protein/Fe-S cluster binding ([2]; mitoNEET, destabiliser = time to 50% cluster loss decreased by more than 25% vs control): destabilisers
